# PubChem BioAssay AID602443 (National Center for Advancing Translational Sciences (NCATS), 2012)
# Test system: aqueous kinetic solubility
# Test: High Content Assay for Compounds that inhibit the Assembly of the Perinucleolar Compartment: Aqueous Kinetic Solubility
# Source text: The perinucleolar compartment (PNC) is a non-membrane-bound nuclear subdomain that is associated with but structurally distinct from the nucleolus. The PNC is a heritable trait, in which the number of PNCs per cell in daughter cells often mimics that of their mother cells. The PNC is heterogeneous in shape, is stable through interphase, disassembles during mitosis, and reassembles in early G1. The PNC is concentrated with newly synthesized RNA polymerase III (pol III) RNAs (MRP RNA, RNAse P H1 RNA, hY RNAs[hY1, 2, 5], Alu RNA, and SRP [7SL] RNA) and RNA binding proteins (nucleolin, PTB, CUG-BP, KSRP, Raver1, Raver2, and Rod).
# Extensive in vitro studies have shown that the PNC is unique to tumor cells and preferentially forms in tumor cells derived from solid tissues. Examination of cancer cell lines from various origins and malignant capacities has shown that PNC prevalence correlates with the malignancy of tumors and has the potential to be developed as a pan-cancer prognostic marker.
# This bioassay provides profiling data on aqueous kinetic solubility (PBS @ pH 7.4) of some of the lead compounds developed for this project.
# NIH Chemical Genomics Center [NCGC]
# NIH Molecular Libraries Probe Centers Network [MLPCN] […]
# 5. Concentration of the supernatant was determined by LC-UV or LC-MS/MS
smiles,measurement,value
N=c1c2c(-c3ccccc3)c(-c3ccccc3)n(Cc3ccccc3)c2ncn1C1CCC(O)CC1 (stereo unspecified),solubility,150 µM
